How the values were obtained:
Assay in all cases: relative viability (nuclei count vs DMSO), 5 days (fraction); higher = more cells survive
Irinotecan + Pemetrexed = compound: CCc1c2c(nc3ccc(OC(=O)N4CCC(N5CCCCC5)CC4)cc13)-c1cc3c(c(=O)n1C2)COC(=O)[C@]3(O)CC [Irinotecan] + Nc1nc2[nH]cc(CCc3ccc(C(=O)N[C@@H](CCC(=O)O)C(=O)O)cc3)c2c(=O)[nH]1 [Pemetrexed] (partner 0.2 µM)
Summary of the method: (§1)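 Relative viability equals treated-well nuclei counts divided by vehicle-well nuclei counts. Counts came from 4× images of lung cancer cell lines grown in 1536-well plates for 5 days after pin-tool dosing on the day after seeding. Dosing used one drug alone or a fixed anchor-drug dose plus five library-drug doses (not always all listed) in √10 steps, and values are medians of duplicate plates.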

MK-8033 + Tozasertib = compound: Cn1cc(-c2cnc3ccc4ccc(CS(=O)(=O)NCc5ccccn5)cc4c(=O)c3c2)cn1 [MK-8033] + Cc1cc(Nc2cc(N3CCN(C)CC3)nc(Sc3ccc(NC(=O)C4CC4)cc3)n2)n[nH]1 [Tozasertib] (partner 0.1 µM)
Summary of the method: as §1

RU-SKI 43 + Foretinib = compound: CC[C@@H](C)CNCC(=O)N1CCC2=C([C@@H]1COC3=CC=CC(=C3)C)C=CS2 [RU-SKI 43] + COc1cc2c(Oc3ccc(NC(=O)C4(C(=O)Nc5ccc(F)cc5)CC4)cc3F)ccnc2cc1OCCCN1CCOCC1 [Foretinib] (partner 0.25 µM)
Summary of the method: as §1

MK-8033 + Decitabine = compound: Cn1cc(-c2cnc3ccc4ccc(CS(=O)(=O)NCc5ccccn5)cc4c(=O)c3c2)cn1 [MK-8033] + Nc1ncn([C@H]2C[C@H](O)[C@@H](CO)O2)c(=O)n1 [Decitabine] (partner 2 µM)
Summary of the method: as §1

Row | Cell Line | relative viability (Irinotecan + Pemetrexed; first compound 0.6325 µM) | relative viability (Irinotecan + Pemetrexed; first compound 2 µM) | relative viability (Irinotecan + Pemetrexed; first compound 6.325 µM) | relative viability (Irinotecan + Pemetrexed; first compound 20 µM) | relative viability (MK-8033 + Tozasertib; first compound 0.02 µM) | relative viability (MK-8033 + Tozasertib; first compound 0.06325 µM) | relative viability (MK-8033 + Tozasertib; first compound 0.2 µM) | relative viability (MK-8033 + Tozasertib; first compound 0.6325 µM) | relative viability (MK-8033 + Tozasertib; first compound 2 µM) | relative viability (RU-SKI 43 + Foretinib; first compound 0.1 µM) | relative viability (RU-SKI 43 + Foretinib; first compound 0.3162 µM) | relative viability (RU-SKI 43 + Foretinib; first compound 1 µM) | relative viability (RU-SKI 43 + Foretinib; first compound 3.162 µM) | relative viability (RU-SKI 43 + Foretinib; first compound 10 µM) | relative viability (MK-8033 + Decitabine; first compound 0.02 µM) | relative viability (MK-8033 + Decitabine; first compound 0.06325 µM) | relative viability (MK-8033 + Decitabine; first compound 0.2 µM) | relative viability (MK-8033 + Decitabine; first compound 0.6325 µM) | relative viability (MK-8033 + Decitabine; first compound 2 µM)
1 | NCI-H1650 | 0.365 | 0.373 | 0.282 | 0.111 | 0.395 | 0.325 | 0.395 | 0.352 | 0.276 | 1.05 | 1.22 | 1.24 | 1.02 | 0.887 | 0.445 | 0.429 | 0.422 | 0.452 | 0.403
2 | NCI-H2170 | 0.277 | 0.245 | 0.238 | 0.151 | 0.662 | 0.702 | 0.634 | 0.695 | 0.628 | 0.994 | 1.13 | 1.07 | 1.09 | 0.975 | 0.461 | 0.405 | 0.458 | 0.479 | 0.468
3 | NCI-H1975 | 0.268 | 0.311 | 0.252 | 0.173 | 0.725 | 0.608 | 0.677 | – | 0.352 | 1.09 | 1.28 | 1.01 | 0.922 | 0.939 | 0.351 | 0.328 | 0.358 | 0.342 | 0.427
4 | NCI-H1437 | 0.319 | 0.315 | 0.312 | 0.265 | 0.408 | 0.424 | 0.401 | 0.395 | 0.372 | 1.22 | 1.24 | 1.37 | 1.2 | 1.22 | 0.615 | 0.585 | 0.511 | 0.626 | 0.549
5 | A-427 | 0.884 | 1 | 0.396 | 0.229 | 0.225 | 0.213 | 0.209 | 0.17 | 0.194 | 1.14 | 1.03 | 1.13 | 1.11 | 0.969 | 0.579 | 0.523 | 0.585 | 0.583 | 0.569
6 | NCI-H2405 | – | 1.12 | 0.315 | 0.256 | 0.735 | 0.726 | 0.724 | 0.734 | 0.789 | 1.08 | 1.03 | 1.04 | 1.09 | 1.05 | 0.776 | 0.703 | 0.67 | 0.701 | 0.746
7 | SK-MES-1 | 0.839 | 0.808 | 0.312 | 0.142 | 0.902 | 0.825 | 0.872 | 0.886 | 0.822 | 1.09 | 1.04 | 0.97 | 1.1 | 0.907 | 0.355 | 0.362 | 0.4 | 0.407 | 0.499
8 | LC-2-ad | 0.325 | 0.271 | 0.259 | 0.151 | 0.441 | 0.385 | – | 0.512 | 0.409 | 0.929 | 0.922 | 0.908 | 1.02 | 0.838 | 0.889 | 1.08 | 0.722 | 0.813 | 0.722
9 | NCI-H1944 | 0.553 | 0.516 | 0.284 | 0.175 | 0.237 | 0.218 | 0.209 | 0.261 | 0.23 | 0.812 | 0.878 | 0.918 | 1.01 | 0.819 | 0.42 | 0.388 | 0.44 | 0.456 | 0.458
10 | NCI-H322M | 0.568 | 0.659 | 0.518 | 0.266 | 0.522 | 0.464 | 0.427 | 0.449 | 0.44 | 0.939 | 1.09 | 1.11 | 1.03 | 0.892 | 0.74 | 0.663 | 0.742 | 0.762 | 0.747
11 | HCC-827 | 0.264 | 0.236 | 0.248 | 0.206 | 0.412 | – | 0.402 | 0.4 | 0.401 | 1.01 | 1.11 | 1.11 | 1.07 | 1.01 | 0.345 | – | 0.322 | 0.376 | 0.37
12 | SW 1573 | – | 0.553 | 0.176 | 0.0829 | 0.175 | 0.214 | 0.187 | 0.223 | 0.232 | 0.997 | 1.21 | 0.843 | 1.04 | 0.887 | 0.528 | 0.467 | 0.524 | 0.502 | 0.474
13 | NCI-H23 | 0.484 | 0.597 | 0.268 | 0.256 | 0.362 | 0.399 | 0.253 | 0.415 | 0.429 | 1.01 | 0.882 | 1.12 | 1.27 | 0.973 | 0.282 | 0.332 | 0.3 | – | 0.299
14 | NCI-H2342 | 0.452 | 0.807 | 0.845 | 0.461 | 0.571 | 0.475 | 0.485 | 0.377 | 0.53 | 0.967 | 1.09 | 1.01 | 1.06 | 1.02 | 0.729 | 0.787 | 0.738 | 0.705 | 0.782
15 | EMC-BAC-2 | 0.389 | 0.393 | 0.312 | 0.244 | 0.295 | 0.254 | 0.281 | 0.265 | 0.298 | 1.01 | 0.998 | 1.04 | 1.01 | 0.986 | 0.941 | 0.762 | 0.967 | 0.982 | 0.938
16 | EPLC-272H | 0.351 | 0.321 | 0.292 | 0.268 | 0.27 | 0.214 | 0.279 | 0.32 | 0.152 | 0.717 | 0.677 | 0.745 | 0.744 | 0.592 | 0.338 | 0.373 | 0.325 | 0.367 | 0.37
17 | EKVX | – | 0.339 | 0.246 | 0.205 | 0.482 | 0.262 | 0.466 | 0.288 | 0.313 | 0.735 | 0.712 | 0.876 | 0.719 | 0.499 | 0.34 | 0.285 | 0.388 | 0.343 | 0.399
18 | HCC-15 | 0.18 | 0.188 | 0.207 | 0.189 | 0.498 | 0.3 | 0.35 | 0.427 | 0.352 | 1.1 | 1.17 | 1.16 | 1.11 | 1.04 | 0.62 | 0.595 | 0.548 | 0.57 | 0.653
19 | LXF-289 | 0.733 | 0.854 | 0.54 | 0.212 | 0.187 | 0.148 | 0.157 | 0.203 | 0.179 | 0.934 | 1.03 | 1.05 | 1.09 | 0.97 | 0.377 | 0.394 | 0.352 | 0.408 | 0.338
20 | LK-2 | 0.227 | 0.343 | 0.182 | 0.336 | 0.174 | – | 0.179 | 0.182 | 0.198 | 1.28 | 1.13 | 1.27 | 1.46 | 1.05 | 0.299 | 0.3 | 0.322 | 0.339 | 0.343
21 | NCI-H2126 | 0.414 | 0.606 | 0.456 | 0.383 | 0.773 | 0.749 | 0.772 | 0.841 | 0.79 | 1.09 | 1.05 | 1.17 | 1.28 | 1.33 | 0.593 | 0.561 | 0.565 | 0.568 | 0.593
22 | NCI-H596 | 0.471 | 0.608 | 0.595 | 0.748 | 0.802 | 0.898 | 0.859 | 0.944 | 0.853 | 0.955 | 0.676 | 0.886 | 0.989 | 0.931 | 0.987 | 0.901 | 0.921 | 1.12 | 1.03
23 | NCI-H3122 | 0.205 | 0.202 | 0.139 | 0.14 | 0.53 | 0.374 | 0.383 | 0.369 | 0.323 | 0.941 | 1.05 | 1 | 0.994 | 0.972 | 0.441 | 0.478 | 0.406 | 0.508 | 0.469
24 | NCI-H1355 | – | 0.968 | 0.656 | 0.319 | 0.572 | 0.524 | 0.513 | 0.526 | 0.398 | 0.914 | 1.22 | 1.01 | 1.02 | 0.936 | 0.363 | 0.309 | 0.36 | 0.335 | 0.318
25 | NCI-H661 | 0.886 | 0.653 | 0.41 | 0.232 | 0.37 | 0.328 | 0.359 | 0.35 | 0.345 | 1.01 | 1.29 | 1 | 1.09 | 0.894 | 0.528 | 0.441 | 0.53 | 0.531 | 0.528

Reference: the supplement of paper PMC10307832
